Measurements reported in PubChem BioAssay (NCI).
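Values below derive from 48-hour exposures of cells grown in 96-well plates, with endpoints linearly interpolated between the two concentrations bracketing the appropriate inhibition level. The concentration for full growth arrest is given as TGI.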

Experiments:
Test in all cases: inhibition of tumour cell growth, NCI panel, 48 h
SR leukemia = test system: SR leukemia
SW-620 colon = test system: SW-620 colon
HOP-62 NSCLC = test system: HOP-62 NSCLC
CCRF-CEM leukemia = test system: CCRF-CEM leukemia
A498 renal = test system: A498 renal
HCT-116 colon = test system: HCT-116 colon
HT29 colon = test system: HT29 colon
OVCAR-3 ovarian = test system: OVCAR-3 ovarian
A549 NSCLC = test system: A549 NSCLC
OVCAR-5 ovarian = test system: OVCAR-5 ovarian

Row | SMILES | TGI (SR leukemia) [µM] | TGI (SW-620 colon) [µM] | TGI (HOP-62 NSCLC) [µM] | TGI (CCRF-CEM leukemia) [µM] | TGI (A498 renal) [µM] | TGI (HCT-116 colon) [µM] | TGI (HT29 colon) [µM] | TGI (OVCAR-3 ovarian) [µM] | TGI (A549 NSCLC) [µM] | TGI (OVCAR-5 ovarian) [µM]
1 | Cc1nc2c(Cl)cc(Cl)cc2c(Cl)c1CCCl | > 100 | > 100 | > 100 | > 100 | > 100 | > 100 | > 100 | > 100 | > 100 | > 100
2 | CC(C)(C)OC(=O)N1Cc2cc(O)ccc2C[C@H]1C(=O)O | > 100 | > 100 | > 100 | > 100 | > 100 | > 100 | > 100 | > 100 | > 100 | > 100
3 | COc1cc(C2c3cc4c(cc3OC3(OC)COC(=O)C23)OCO4)cc(OC)c1OC (stereo not given) | 4.8 | > 100 | > 100 | 3.05 | 2.38 | 7 | 0.804 | 2.45 | > 37.8 | > 89.2
4 | CC1C2CC(CC2N)C1(C)C (stereo not given) | > 100 | > 100 | > 100 | > 100 | > 100 | > 100 | > 100 | > 100 | > 100 | > 100
5 | CCCC(=O)Nc1cc(/C=C/C(=O)N2CC(CCl)c3c2cc([N+](=O)[O-])c2ccccc32)n(C)c1 (stereo not given) | > 100 | > 100 | > 100 | > 100 | > 87.9 | > 100 | > 100 | > 100 | > 100 | > 100
6 | CN(C)CCNC(=O)c1cccc2[nH]c(-c3ccncc3)nc12 | > 100 | 13 | 52.8 | 7.77 | 19.8 | 9.82 | 7.27 | > 46.9 | > 44.9 | 34.1
7 | CCCCCCCCCCCCCCCCCCOc1ccc(/C=C/C2=[N+](CCCl)CCO2)cc1 | > 100 | > 100 | > 100 | > 100 | > 100 | > 100 | > 100 | > 100 | > 100 | > 100
